Assay [1] relates to Mus musculus. Kind of assay: In vivo efficacy against Aspergillus fumigatus CF1083 1E4 conidia/g for pulmonary aspergillosis in mice after iv treatment on day 14. Type of assay: functional. Conditions: 336 h.
Assay [2] relates to Nakaseomyces glabratus. Kind of assay: Antifungal activity against Candida glabrata ATCC 2001. Type of assay: functional.
For assay [3], the species on record is Mus musculus. The experiment in a line: Hepatotoxicity using inclusion-body formation test in hepatocytes of mice. The assay is classed as functional, Hepatocyte.
For assay [4], the system named is Pichia kudriavzevii. The experiment in a line: Antifungal activity against Candida krusei ATCC 20579. Type of assay: functional.
Assay [5] has as its system Lomentospora prolificans. The experiment in a line: Antifungal activity against Scedosporium prolificans ATCC 20054. The assay is classed as functional.
The subject of assay [6] is Candida albicans. The experiment in a line: In vitro antifungal activity against Candida albicans CY1002 using 80 percent serum. Type of assay: functional, organism-based.
Assay [7] deals with Aspergillus fumigatus. The experiment in a line: Antifungal activity against Aspergillus fumigatus MTU06002. Type of assay: functional.
Assay [8] concerns Candida albicans. The experiment in a line: Antifungal activity against Candida albicans ATCC 48130. The assay is classed as functional.
The test system of assay [9] is Candida albicans. The experiment in a line: In vitro antifungal activity against Candida albicans CY1002. The assay is classed as functional, organism-based.
In assay [10] the test system is Candida tropicalis. Kind of assay: Antifungal activity against Candida tropicalis ATCC 13803. The assay is classed as functional.
Assay [11] deals with Scedosporium boydii. The experiment in a line: Antifungal activity against Scedosporium […] IFM40731N. Type of assay: functional.
Assay [12] has as its system Mus musculus. Kind of assay: In vivo efficacy against Candida albicans CY1002 5E6 cells for systemic candidiasis in mice after iv treatment on day 7. Conditions: CY1002 5E6, iv, 168 h. Type of assay: functional.
The subject of assay [13] is Candida albicans. The experiment in a line: Antifungal activity against Candida albicans KB fluconazole resistant strain. The assay is classed as functional.
The target in assay [14] is Beta-1,3-glucan synthase (Candida albicans, UniProt O13428). The experiment in a line: In vitro inhibitory activity against Beta glucan synthase.

We go through one molecule from ChEMBL document CHEMBL1134059, “Synthesis and antifungal activities of novel 1,3-beta-D-glucan synthase inhibitors. Part 2” (Bioorg Med Chem Lett, 2001).

As usually defined, the ED50 is the dose at which the effect has come halfway, by size or by number of responders. Read a high ED50 as a need for a large dose. In general, MIC refers to the smallest concentration in the dilution series that meets the test's criterion for growth inhibition. Read a high MIC as a need for much substance. One may read the IC50 as the concentration that inhibits the measured activity by half. A lower IC50 goes with greater potency.

Each structure is given as a SMILES string. Converted amounts (≈) assume the structure as drawn.

Beta-1,3-glucan synthase, sequence (O13428 whole entry): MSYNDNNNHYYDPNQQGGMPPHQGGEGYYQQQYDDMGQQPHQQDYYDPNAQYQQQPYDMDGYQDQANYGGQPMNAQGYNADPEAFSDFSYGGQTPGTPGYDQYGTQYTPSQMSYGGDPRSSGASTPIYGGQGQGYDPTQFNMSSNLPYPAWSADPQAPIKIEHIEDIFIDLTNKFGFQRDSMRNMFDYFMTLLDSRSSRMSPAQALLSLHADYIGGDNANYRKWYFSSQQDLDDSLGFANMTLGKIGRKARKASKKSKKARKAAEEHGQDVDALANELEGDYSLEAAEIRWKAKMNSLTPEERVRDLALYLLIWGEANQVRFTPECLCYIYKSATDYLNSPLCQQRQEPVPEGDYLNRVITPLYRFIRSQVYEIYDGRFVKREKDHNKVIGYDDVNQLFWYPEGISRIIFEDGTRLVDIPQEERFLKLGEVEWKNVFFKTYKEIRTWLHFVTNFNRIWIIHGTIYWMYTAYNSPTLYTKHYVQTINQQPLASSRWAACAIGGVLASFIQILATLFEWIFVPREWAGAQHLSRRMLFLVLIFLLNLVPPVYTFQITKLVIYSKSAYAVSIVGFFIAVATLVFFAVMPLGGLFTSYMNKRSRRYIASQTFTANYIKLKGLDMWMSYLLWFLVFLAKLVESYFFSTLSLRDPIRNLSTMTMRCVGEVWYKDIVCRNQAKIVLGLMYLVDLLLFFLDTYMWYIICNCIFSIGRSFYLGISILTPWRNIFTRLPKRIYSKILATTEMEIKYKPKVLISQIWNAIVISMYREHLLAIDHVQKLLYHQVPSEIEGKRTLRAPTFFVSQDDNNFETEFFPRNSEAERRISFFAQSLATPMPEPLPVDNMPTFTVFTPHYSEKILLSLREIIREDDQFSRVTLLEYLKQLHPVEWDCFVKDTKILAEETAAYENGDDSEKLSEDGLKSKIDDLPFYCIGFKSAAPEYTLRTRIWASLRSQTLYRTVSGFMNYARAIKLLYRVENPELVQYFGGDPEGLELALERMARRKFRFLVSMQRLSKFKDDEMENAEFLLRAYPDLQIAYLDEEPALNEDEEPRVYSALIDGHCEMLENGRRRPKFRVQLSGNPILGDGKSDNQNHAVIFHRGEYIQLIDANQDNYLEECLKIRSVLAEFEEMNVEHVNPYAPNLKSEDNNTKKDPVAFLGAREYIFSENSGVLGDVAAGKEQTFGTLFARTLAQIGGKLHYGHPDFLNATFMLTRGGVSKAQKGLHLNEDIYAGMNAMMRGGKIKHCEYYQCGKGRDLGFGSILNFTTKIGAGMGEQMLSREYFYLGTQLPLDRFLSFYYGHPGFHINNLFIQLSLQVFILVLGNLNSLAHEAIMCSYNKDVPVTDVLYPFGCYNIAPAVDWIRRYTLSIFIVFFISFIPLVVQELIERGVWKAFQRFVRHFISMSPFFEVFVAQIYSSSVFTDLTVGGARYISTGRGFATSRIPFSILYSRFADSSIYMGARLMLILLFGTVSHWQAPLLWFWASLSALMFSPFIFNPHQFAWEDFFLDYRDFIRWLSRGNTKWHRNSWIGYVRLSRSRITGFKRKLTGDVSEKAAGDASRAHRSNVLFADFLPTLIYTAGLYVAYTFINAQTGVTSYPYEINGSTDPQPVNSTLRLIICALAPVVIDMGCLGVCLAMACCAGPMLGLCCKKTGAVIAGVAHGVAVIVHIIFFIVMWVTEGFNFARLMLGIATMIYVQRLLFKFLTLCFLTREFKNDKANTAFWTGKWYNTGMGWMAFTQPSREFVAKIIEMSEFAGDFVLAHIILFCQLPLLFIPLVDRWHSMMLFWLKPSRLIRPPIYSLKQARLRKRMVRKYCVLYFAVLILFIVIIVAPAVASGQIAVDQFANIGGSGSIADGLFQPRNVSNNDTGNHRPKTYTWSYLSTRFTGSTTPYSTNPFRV

As for `CCCCCCCCCCCCC[C@@H]1CC(=O)N[C@H]([C@@H](C)O)C(=O)N[C@H](C)C(=O)N[C@@H](Cc2ccc(O)cc2)C(=O)N[C@@H](C(C)C)C(=O)N2C[C@H](O)C[C@H]2C(=O)N[C@H]([C@@H](C)O)C(=O)N[C@@H]([C@@H](C)O)C(=O)N2CC[C@H](O)[C@H]2C(=O)N[C@@H]([C@H](O)CC(N)=O)C(=O)NCC(=O)N[C@H]([C@@H](C)O)C(=O)N[C@@H](CCCN(CCCN)C(=O)[C@H](CCCN)N(CCN)CCN)C(=O)O1`, the ED50 in assay [1] stood at 8.6 mg/kg; in assay [12], 0.08 mg/kg. Moreover, the MIC amounted to 1 µg/mL (≈ 0.558 µM) in assay [2]; 0.31 µg/mL (≈ 0.173 µM) in assay [4]; 0.38 µg/mL (≈ 0.212 µM) in assay [5]; 0.37 µg/mL (≈ 0.207 µM) in [7]; 0.41 µg/mL (≈ 0.229 µM) in [8]; 0.63 µg/mL (≈ 0.352 µM) in [10]. Besides, the MIC in [11] and in [13] was 0.35 µg/mL (≈ 0.195 µM) throughout. In [3], this molecule showed an Observed at of 100 µg/mL. Further, the IC50 in assay [6] is 0.31 µg/mL (≈ 0.173 µM); in assay [9], 0.45 µg/mL (≈ 0.251 µM); in [14], 0.28 nM.
